Reference: US20220119354A1, “DIAMINO-SUBSTITUTED PYRIDINES AND PYRIMIDINES AS HERBICIDES” (FMC Corporation, priority 2019, published 2022)

Experiments:
Assay type in all cases: in vivo
[1] = system: ragweed (common ragweed, Ambrosia elatior); test: Test A preemergence, ragweed; conditions: 0 to 100 scale
Summary of the method: (§1)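 Post: seedlings 2–10 cm, 1–2 leaves, foliar spray. Pre: soil spray after sowing in loam/sand blend. Both formulated in non-phytotoxic solvent with surfactant; injury scored visually 0–100 after ~10 d.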

[2] = system: ryegrass, Italian (Lolium multiflorum); test: Test A preemergence, Italian ryegrass; conditions: 0 to 100 scale
Summary of the method: as §1

[3] = system: galium (catchweed bedstraw, Galium aparine); test: Test A postemergence, galium; conditions: 0 to 100 scale
Summary of the method: as §1

[4] = system: ryegrass, Italian (Lolium multiflorum); test: Test A postemergence, Italian ryegrass; conditions: 0 to 100 scale
Summary of the method: as §1

[5] = system: barnyardgrass (Echinochloa crus-galli); test: Test B flooded paddy test, barnyardgrass; conditions: Flood, 250 g ai/ha, applied to paddy water, 2-leaf stage, visual evaluation after 13 to 15 d
Summary of the method: (§2)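 2-leaf seedlings; pots flooded 3 cm above soil; compound added straight to paddy water; depth maintained. Greenhouse 13–15 d. Visual rating vs controls, 0–100 scale (0 = no effect, 100 = complete control).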

kochia (Kochia scoparia) [6] = test: Test A postemergence, kochia; conditions: 0 to 100 scale
Summary of the method: as §1

[7] = system: barnyardgrass (Echinochloa crus-galli); test: Test A preemergence, barnyardgrass; conditions: 0 to 100 scale
Summary of the method: as §1

[8] = system: foxtail, giant (Setaria faberii); test: Test A preemergence, giant foxtail; conditions: 0 to 100 scale
Summary of the method: as §1

[9] = system: sedge, umbrella (small-flower umbrella sedge, Cyperus difformis); test: Test B flooded paddy test, umbrella sedge; conditions: Flood, 250 g ai/ha, applied to paddy water, 2-leaf stage, visual evaluation after 13 to 15 d
Summary of the method: as §2

[10] = system: ducksalad (Heteranthera limosa); test: Test B flooded paddy test, ducksalad; conditions: Flood, 250 g ai/ha, applied to paddy water, 2-leaf stage, visual evaluation after 13 to 15 d
Summary of the method: as §2

[11] = system: pigweed (Amaranthus retroflexus); test: Test A preemergence, pigweed; conditions: 0 to 100 scale
Summary of the method: as §1

corn (Zea mays) = test: Test A postemergence, corn; conditions: 0 to 100 scale
Summary of the method: as §1

kochia (Kochia scoparia) [12] = test: Test A preemergence, kochia; conditions: 0 to 100 scale
Summary of the method: as §1

[13] = system: barnyardgrass (Echinochloa crus-galli); test: Test A postemergence, barnyardgrass; conditions: 0 to 100 scale
Summary of the method: as §1

[14] = system: ragweed (common ragweed, Ambrosia elatior); test: Test A postemergence, ragweed; conditions: 0 to 100 scale
Summary of the method: as §1

rice (Oryza sativa) = test: Test B flooded paddy test, rice; conditions: Flood, 250 g ai/ha, applied to paddy water, 2-leaf stage, visual evaluation after 13 to 15 d
Summary of the method: as §2

[15] = system: pigweed (Amaranthus retroflexus); test: Test A postemergence, pigweed; conditions: 0 to 100 scale
Summary of the method: as §1

[16] = system: wheat (Triticum aestivum); test: Test A postemergence, wheat; conditions: 0 to 100 scale
Summary of the method: as §1

[17] = system: blackgrass (Alopecurus myosuroides); test: Test A postemergence, blackgrass; conditions: 0 to 100 scale
Summary of the method: as §1

[18] = system: foxtail, giant (Setaria faberii); test: Test A postemergence, giant foxtail; conditions: 0 to 100 scale
Summary of the method: as §1

C[C@@H](Nc1ncc(C(F)(F)F)c(N)n1)C1Cc2ccccc2C1 [Compound 13, N2-[(1R)-1-(2,3-dihydro-1H-inden-2-yl)ethyl]-5-(trifluoromethyl)-2,4-pyrimidinediamine]
Plant response rating, Ragweed ([1]; 125 g ai/ha): 100
Plant response rating, Ragweed ([1]; 500 g ai/ha): 100
Plant response rating, Ryegrass, Italian ([2]; 125 g ai/ha): 60
Plant response rating, Ryegrass, Italian ([2]; 500 g ai/ha): 100
pest or weed control at 125 g/ha ([3]; Galium, post-emergence, 240 h, 125 g ai/ha, read-out: Plant response rating, Galium): 80%
pest or weed control at 500 g/ha ([3]; Galium, post-emergence, 240 h, 500 g ai/ha, read-out: Plant response rating, Galium): 80%
pest or weed control at 125 g/ha ([4]; Lolium multiflorum, post-emergence, 240 h, 125 g ai/ha, read-out: Plant response rating, Ryegrass, Italian): 0%
pest or weed control at 500 g/ha ([4]; Lolium multiflorum, post-emergence, 240 h, 500 g ai/ha, read-out: Plant response rating, Ryegrass, Italian): 20%
pest or weed control at 250 g/ha ([5]; Echinochloa crus-galli, 360 h, read-out: Plant response rating, Barnyardgrass (0 to 100 scale, 0 is no effect, 100 is complete control)): 90%
pest or weed control at 125 g/ha (kochia (Kochia scoparia) [6]; Bassia scoparia, post-emergence, 240 h, 125 g ai/ha, read-out: Plant response rating, Kochia): 90%
pest or weed control at 500 g/ha (kochia (Kochia scoparia) [6]; Bassia scoparia, post-emergence, 240 h, 500 g ai/ha, read-out: Plant response rating, Kochia): 100%
Plant response rating, Barnyardgrass ([7]; 125 g ai/ha): 90
Plant response rating, Barnyardgrass ([7]; 500 g ai/ha): 100
Plant response rating, Foxtail, Giant ([8]; 125 g ai/ha): 100
Plant response rating, Foxtail, Giant ([8]; 500 g ai/ha): 100
pest or weed control at 250 g/ha ([9]; Cyperus difformis, 360 h, read-out: Plant response rating, Sedge, Umbrella (0 to 100 scale, 0 is no effect, 100 is complete control)): 95%
pest or weed control at 250 g/ha ([10]; Heteranthera limosa, 360 h, read-out: Plant response rating, Ducksalad (0 to 100 scale, 0 is no effect, 100 is complete control)): 75%
Plant response rating, Pigweed ([11]; 125 g ai/ha): 100
Plant response rating, Pigweed ([11]; 500 g ai/ha): 100
Corn plant response rating (crop injury, 0 = no effect, 100 = complete kill) at 125 g/ha (corn (Zea mays); Zea mays, post-emergence, 240 h, 125 g ai/ha): 10%
Corn plant response rating (crop injury, 0 = no effect, 100 = complete kill) at 500 g/ha (corn (Zea mays); Zea mays, post-emergence, 240 h, 500 g ai/ha): 60%
Plant response rating, Kochia (kochia (Kochia scoparia) [12]; 125 g ai/ha): 100
Plant response rating, Kochia (kochia (Kochia scoparia) [12]; 500 g ai/ha): 100
pest or weed control at 125 g/ha ([13]; Echinochloa crus-galli, post-emergence, 240 h, 125 g ai/ha, read-out: Plant response rating, Barnyardgrass): 30%
pest or weed control at 500 g/ha ([13]; Echinochloa crus-galli, post-emergence, 240 h, 500 g ai/ha, read-out: Plant response rating, Barnyardgrass): 60%
pest or weed control at 125 g/ha ([14]; Ambrosia artemisiifolia, post-emergence, 240 h, 125 g ai/ha, read-out: Plant response rating, Ragweed): 30%
pest or weed control at 500 g/ha ([14]; Ambrosia artemisiifolia, post-emergence, 240 h, 500 g ai/ha, read-out: Plant response rating, Ragweed): 80%
plant injury at 250 g/ha (rice (Oryza sativa); Oryza sativa, 360 h, read-out: Plant response rating, Rice (0 to 100 scale, 0 is no effect, 100 is complete control)): 10%
pest or weed control at 125 g/ha ([15]; Amaranthus retroflexus, post-emergence, 240 h, 125 g ai/ha, read-out: Plant response rating, Pigweed): 100%
pest or weed control at 500 g/ha ([15]; Amaranthus retroflexus, post-emergence, 240 h, 500 g ai/ha, read-out: Plant response rating, Pigweed): 100%
plant injury at 125 g/ha ([16]; Triticum aestivum, post-emergence, 240 h, 125 g ai/ha, read-out: Plant response rating, Wheat): 0%
plant injury at 500 g/ha ([16]; Triticum aestivum, post-emergence, 240 h, 500 g ai/ha, read-out: Plant response rating, Wheat): 20%
pest or weed control at 125 g/ha ([17]; Alopecurus myosuroides, post-emergence, 240 h, 125 g ai/ha, read-out: Plant response rating, Blackgrass): 10%
pest or weed control at 500 g/ha ([17]; Alopecurus myosuroides, post-emergence, 240 h, 500 g ai/ha, read-out: Plant response rating, Blackgrass): 30%
pest or weed control at 125 g/ha ([18]; Setaria faberi, post-emergence, 240 h, 125 g ai/ha, read-out: Plant response rating, Foxtail, Giant): 80%
pest or weed control at 500 g/ha ([18]; Setaria faberi, post-emergence, 240 h, 500 g ai/ha, read-out: Plant response rating, Foxtail, Giant): 100%

Cc1ccc2cc([C@@H](C)Nc3ncc(C(F)(F)F)c(N)n3)oc2c1 [Compound 14]
Plant response rating, Ragweed ([1]; 125 g ai/ha): 100
Plant response rating, Ragweed ([1]; 500 g ai/ha): 100
Plant response rating, Ryegrass, Italian ([2]; 125 g ai/ha): 0
Plant response rating, Ryegrass, Italian ([2]; 500 g ai/ha): 60
Plant response rating, Galium ([3]; 125 g ai/ha): 80
Plant response rating, Galium ([3]; 500 g ai/ha): 80
Plant response rating, Ryegrass, Italian ([4]; 125 g ai/ha): 0
Plant response rating, Ryegrass, Italian ([4]; 500 g ai/ha): 0
Plant response rating, Barnyardgrass (0 to 100 scale, 0 is no effect, 100 is complete control) [5]: 0
Plant response rating, Kochia (kochia (Kochia scoparia) [6]; 125 g ai/ha): 90
Plant response rating, Kochia (kochia (Kochia scoparia) [6]; 500 g ai/ha): 90
Plant response rating, Barnyardgrass ([7]; 125 g ai/ha): 90
Plant response rating, Barnyardgrass ([7]; 500 g ai/ha): 100
Plant response rating, Foxtail, Giant ([8]; 125 g ai/ha): 90
Plant response rating, Foxtail, Giant ([8]; 500 g ai/ha): 100
Plant response rating, Sedge, Umbrella (0 to 100 scale, 0 is no effect, 100 is complete control) [9]: 0
Plant response rating, Ducksalad (0 to 100 scale, 0 is no effect, 100 is complete control) [10]: 0
Plant response rating, Pigweed ([11]; 125 g ai/ha): 90
Plant response rating, Pigweed ([11]; 500 g ai/ha): 100
Plant response rating, Corn (corn (Zea mays); 125 g ai/ha): 10
Plant response rating, Corn (corn (Zea mays); 500 g ai/ha): 10
Plant response rating, Kochia (kochia (Kochia scoparia) [12]; 125 g ai/ha): 60
Plant response rating, Kochia (kochia (Kochia scoparia) [12]; 500 g ai/ha): 90
Plant response rating, Barnyardgrass ([13]; 125 g ai/ha): 10
Plant response rating, Barnyardgrass ([13]; 500 g ai/ha): 40
Plant response rating, Ragweed ([14]; 125 g ai/ha): 0
Plant response rating, Ragweed ([14]; 500 g ai/ha): 70
Plant response rating, Rice (0 to 100 scale, 0 is no effect, 100 is complete control) (rice (Oryza sativa)): 0
Plant response rating, Pigweed ([15]; 125 g ai/ha): 90
Plant response rating, Pigweed ([15]; 500 g ai/ha): 90
Plant response rating, Wheat ([16]; 125 g ai/ha): 0
Plant response rating, Wheat ([16]; 500 g ai/ha): 0
Plant response rating, Blackgrass ([17]; 125 g ai/ha): 30
Plant response rating, Blackgrass ([17]; 500 g ai/ha): 30
Plant response rating, Foxtail, Giant ([18]; 125 g ai/ha): 10
Plant response rating, Foxtail, Giant ([18]; 500 g ai/ha): 90
